In patent US20070031480A1, “Enhanced delivery of sphingolipids” (priority 2003, published 2007):

How the values were obtained:
[1] = system: J774 murine macrophage cells; test: MTT cytotoxicity assay of free ceramide and liposomes, 72 hours; assay type: cell-based; settings: liposome concentration corrected for ceramide content
Protocol: (§1) Human estrogen receptor negative MDA435/LCC6 wild-type and MDR-1 gene transfected MDA435/LCC6^MDR1 multidrug resistant breast cancer cell lines were obtained from Dr. Robert Clark, Georgetown University, Washington, D.C. J774 murine macrophage cells were obtained from ATCC (Rockville, Md.). All cells were grown as adherent monolayer cultures in 25-cm^2 Falcon flasks in DMEM supplemented with 10% fetal bovine serum and 1% L-glutamine. Cells were maintained at 37° C. in humidified air with 5% CO2. Cells were sub-cultured weekly using 0.25% trypsin with 1 mM EDTA (MDA435/LCC6) or gentle cell scraping (J774).
(§2) Cell suspensions were diluted 1:1 with trypan blue, counted with a hemocytometer and seeded into 96-well microtitre plates at […] in 0.2 ml complete medium. […] After 72 hours the cell viability was assessed using a conventional 3-(4,5-dimethylthiazol-2-yl)-2,5-diphenyl tetrazolium bromide (MTT) dye reduction assay. […] The formazan dye was measured spectrophotometrically using a Dynex plate reader (570 nm). […] The cytotoxic effect of each treatment was expressed as percent cell viability relative to untreated control cells (% control) and is defined as: [(Abs570 treated cells)/( Abs570 control cells)]×100.
The inventors next determined whether the stable formulation of C16-ceramide into CHEMS liposomes translated into enhanced cytotoxicity in vitro. […]

[2] = system: MDA435/LCC6 wild-type and MDR-1 gene transfected MDA435/LCC6MDR1 breast cancer cells; test: MTT cytotoxicity assay of free ceramides, 72 hours; assay type: cell-based, human; settings: free ceramide, wild-type and MDR1 MDA435/LCC6 cells, not separated
Protocol: as §1
as §2, with “medium. The perimeter wells were not used and contained 0.2 ml sterile water.” for “medium.”, “cells)]×100. […]” for “cells)]×100.”

Structure (SMILES)	IC50 [1]	IC50 [2]
CCCCCCCCCCCCC/C=C/[C@@H](O)[C@H](CO)NC(=O)CCCCC [C6-ceramide]	14.4 µM	
CCCCCCCCCCCCC/C=C/[C@@H](O)[C@H](CO)NC(=O)CCCCCCCCC [C10-ceramide]		~45 µM
CCCCCCCCCCCCC/C=C/[C@@H](O)[C@H](CO)NC(=O)CCCCCCCCCCCCCCC [C16-ceramide]	> 100 µM	
